Source: patent publication US11524966B1 (Valo Early Discovery, Inc., priority 2017, dated 2022)

What follows are compounds tested against T1, USP28 (His-tagged USP28-FL-mammalian) (Homo sapiens, UniProt Q96RU2) (assay: Ubiquitin-Rhodamine 110 Assay for USP28 Activity, Example A-1(a)). Settings: Ubiquitin-Rhodamine 110 assay, Example A-1(a); read-out: USP28 A-1(a) IC50 range.
T1 construct: Expression of USP28 (1-1077)-TEV-6*His (pTT5 vector); made in house; host or cells: Expi293f cells (pTT5 vector)
T1 sequence (Q96RU2 1-1077): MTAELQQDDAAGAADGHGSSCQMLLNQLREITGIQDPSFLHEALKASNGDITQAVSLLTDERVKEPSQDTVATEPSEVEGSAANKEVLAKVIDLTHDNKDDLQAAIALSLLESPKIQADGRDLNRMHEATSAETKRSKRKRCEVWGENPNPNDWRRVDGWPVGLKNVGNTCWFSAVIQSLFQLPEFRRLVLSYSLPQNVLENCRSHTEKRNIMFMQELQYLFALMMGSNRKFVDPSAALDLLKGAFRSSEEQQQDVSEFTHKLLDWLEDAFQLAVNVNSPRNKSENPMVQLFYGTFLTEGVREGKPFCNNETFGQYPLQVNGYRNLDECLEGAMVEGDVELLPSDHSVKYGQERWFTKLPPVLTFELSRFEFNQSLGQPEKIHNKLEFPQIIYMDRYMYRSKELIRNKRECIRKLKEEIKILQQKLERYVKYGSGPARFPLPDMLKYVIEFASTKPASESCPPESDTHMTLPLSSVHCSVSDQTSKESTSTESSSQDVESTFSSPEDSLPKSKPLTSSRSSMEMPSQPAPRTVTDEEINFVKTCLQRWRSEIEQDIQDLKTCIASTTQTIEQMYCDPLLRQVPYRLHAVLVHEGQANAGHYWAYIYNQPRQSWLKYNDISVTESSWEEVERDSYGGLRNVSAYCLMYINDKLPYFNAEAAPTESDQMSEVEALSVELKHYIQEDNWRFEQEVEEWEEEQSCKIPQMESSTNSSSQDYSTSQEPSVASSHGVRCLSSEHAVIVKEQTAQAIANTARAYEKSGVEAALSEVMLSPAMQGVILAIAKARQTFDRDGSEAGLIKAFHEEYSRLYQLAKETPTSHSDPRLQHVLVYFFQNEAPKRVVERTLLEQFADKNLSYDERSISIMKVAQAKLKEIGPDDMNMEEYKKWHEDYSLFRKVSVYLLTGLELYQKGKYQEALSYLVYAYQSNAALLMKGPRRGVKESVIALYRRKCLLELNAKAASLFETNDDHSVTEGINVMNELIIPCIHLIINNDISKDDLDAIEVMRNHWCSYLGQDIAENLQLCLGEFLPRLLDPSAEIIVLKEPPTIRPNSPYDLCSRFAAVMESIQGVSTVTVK
Type: biochemical
Summary of the method: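 Full-length His-tagged USP28 (1-1077, Expi293F-expressed; […]) was preincubated 30 min with compound (25 μM–1.3 nM, 10-point 3-fold) in 20 mM Tris-HCl pH 8.0, 3 mM BME, 0.03% BGG, 0.01% Triton X-100. Ub-Rh110 (25 nM) was then added for 45 min at room temperature, stopped with citric acid, and read by fluorescence (485/535 nm).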

**Q.** Which IC50 does the source give for Cc1ccc2c(N)c(C(=O)N[C@H]3CCc4nc(N5C[C@@H](N)[C@@H](C(F)F)C5)ccc4C3)sc2n1 [Example 346, 3-amino-N-[(6S)-2-[(3S,4S)-3-amino-4-(difluoromethyl)pyrrolidin-1-yl]-5,6,7,8-tetrahydroquinolin-6-yl]-6-methylthieno[2,3-b]pyridine-2-carboxamide] here?
**A.** 50 to 200 nM

**Q.** Cc1ccc2c(N)c(C(=O)N[C@H]3CCc4nc(N5C[C@H](C(F)F)[C@@H](N)C5)ccc4C3)sc2n1 [Example 347, 3-amino-N-[(6S)-2-[(3R,4S)-3-amino-4-(difluoromethyl)pyrrolidin-1-yl]-5,6,7,8-tetrahydroquinolin-6-yl]-6-methylthieno[2,3-b]pyridine-2-carboxamide] was tested. Which IC50 did it give?
**A.** 50 to 200 nM

**Q.** COC[C@@H]1CN(c2ccc3c(n2)OC[C@H](NC(=O)c2sc4nc(C)cc(C)c4c2N)C3)C[C@@H]1N [Example 348, 3-amino-N-[(3R)-7-[(3R,4R)-3-amino-4-(methoxymethyl)pyrrolidin-1-yl]-2H,3H,4H-pyrano[2,3-b]pyridin-3-yl]-4,6-dimethylthieno[2,3-b]pyridine-2-carboxamide] was tested. Which IC50 did it give?
**A.** 50 to 200 nM

**Q.** With COC[C@H]1CN(c2ccc3c(n2)OC[C@H](NC(=O)c2sc4nc(C)cc(C)c4c2N)C3)C[C@H]1N [Example 349, 3-amino-N-[(3R)-7-[(3S,4S)-3-amino-4-(methoxymethyl)pyrrolidin-1-yl]-2H,3H,4H-pyrano[2,3-b]pyridin-3-yl]-4,6-dimethylthieno[2,3-b]pyridine-2-carboxamide] as the compound, how does the IC50 read?
**A.** 50 to 200 nM

**Q.** Which IC50 does the source give for CN[C@H]1CN(c2ccc3c(c2)OC[C@H](NC(=O)c2sc4nc(C)ccc4c2N)C3)C[C@@H]1O [Example 350, 3-amino-N-[(3R)-7-[(3S,4S)-3-hydroxy-4-(methylamino)pyrrolidin-1-yl]-3,4-dihydro-2H-1-benzopyran-3-yl]-6-methylthieno[2,3-b]pyridine-2-carboxamide] here?
**A.** 50 to 200 nM

**Q.** Which IC50 does the source give for CCn1ccc2cc(C(=O)N[C@H]3CCc4nc(N5C[C@H](OC)[C@@H](N)C5)ccc4C3)cnc21 [Example 353, N-[(6S)-2-[(3S,4S)-3-amino-4-methoxypyrrolidin-1-yl]-5,6,7,8-tetrahydroquinolin-6-yl]-1-ethyl-1H-pyrrolo[2,3-b]pyridine-5-carboxamide] here?
**A.** 200 to 2000 nM

**Q.** With Cc1cc(C)c2c(N)c(C(=O)N[C@H]3CCc4nc(N5CC6CCC(C5)N6)ccc4C3)sc2n1 [Example 354, 3-amino-N-[(6S)-2-{3,8-diazabicyclo[3.2.1]octan-3-yl}-5,6,7,8-tetrahydroquinolin-6-yl]-4,6-dimethylthieno[2,3-b]pyridine-2-carboxamide] as the compound, how does the IC50 read?
**A.** 1 to 50 nM

**Q.** For CCn1cc(Cl)c2cc(C(=O)N[C@H]3COc4c(F)c(N5CC6CCC(C5)N6)cc(F)c4C3)nnc21 [Example 355, 5-chloro-N-[(3R)-7-{3,8-diazabicyclo[3.2.1]octan-3-yl}-5,8-difluoro-3,4-dihydro-2H-1-benzopyran-3-yl]-7-ethyl-7H-pyrrolo[2,3-c]pyridazine-3-carboxamide], which IC50 is on record?
**A.** 50 to 200 nM

**Q.** How did the IC50 turn out when CCn1cc(Cl)c2cc(C(=O)N[C@H]3COc4c(C#N)c(N5CC6CCC(C5)N6)cc(F)c4C3)nnc21 [Example 356, 5-chloro-N-[(3R)-8-cyano-7-{3,8-diazabicyclo[3.2.1]octan-3-yl}-5-fluoro-3,4-dihydro-2H-1-benzopyran-3-yl]-7-ethyl-7H-pyrrolo[2,3-c]pyridazine-3-carboxamide] was run?
**A.** 200 to 2000 nM

**Q.** Cc1ccc2c(N)c(C(=O)N[C@H]3CCc4nc(N5C[C@H](N)[C@H](OC(C)(F)F)C5)ccc4C3)sc2n1 [Example 357, 3-amino-N-[(6S)-2-[(3S,4R)-3-amino-4-(1,1-difluoroethoxy)pyrrolidin-1-yl]-5,6,7,8-tetrahydroquinolin-6-yl]-6-methylthieno[2,3-b]pyridine-2-carboxamide] was tested. Which IC50 did it give?
**A.** 50 to 200 nM

**Q.** Which IC50 does the source give for Cc1ccc2c(N)c(C(=O)N[C@H]3CCc4nc(N5C[C@@H](N)[C@@H](OC(C)(F)F)C5)ccc4C3)sc2n1 [Example 358, 3-amino-N-[(6S)-2-[(3R,4S)-3-amino-4-(1,1-difluoroethoxy)pyrrolidin-1-yl]-5,6,7,8-tetrahydroquinolin-6-yl]-6-methylthieno[2,3-b]pyridine-2-carboxamide] here?
**A.** 200 to 2000 nM

**Q.** Which IC50 does the source give for Cc1ccc2c(N)c(C(=O)N[C@H]3CCc4nc(N5C[C@H](N)[C@@H](C(F)(F)F)C5)ccc4C3)sc2n1 [Example 363, 3-amino-N-[(6S)-2-[(3R,4S)-3-amino-4-(trifluoromethyl)pyrrolidin-1-yl]-5,6,7,8-tetrahydroquinolin-6-yl]-6-methylthieno[2,3-b]pyridine-2-carboxamide] here?
**A.** 50 to 200 nM

**Q.** Cc1ccc2c(N)c(C(=O)N[C@H]3CCc4nc(N5C[C@@H](N)[C@H](C(F)(F)F)C5)ccc4C3)sc2n1 [Example 364, 3-amino-N-[(6S)-2-[(3S,4R)-3-amino-4-(trifluoromethyl)pyrrolidin-1-yl]-5,6,7,8-tetrahydroquinolin-6-yl]-6-methylthieno[2,3-b]pyridine-2-carboxamide] was tested. Which IC50 did it give?
**A.** 50 to 200 nM

**Q.** With Cc1cnc2c(N)c(C(=O)N[C@H]3CCc4nc(N5C[C@H](N)C6(COC6)C5)ccc4C3)sc2n1 [Example 365, 7-amino-N-[(6S)-2-[(8R)-8-amino-2-oxa-6-azaspiro[3.4]octan-6-yl]-5,6,7,8-tetrahydroquinolin-6-yl]-3-methylthieno[2,3-b]pyrazine-6-carboxamide] as the compound, how does the IC50 read?
**A.** 1 to 50 nM

**Q.** Cc1cnc2c(N)c(C(=O)N[C@H]3CCc4nc(N5C[C@@H](N)C6(COC6)C5)ccc4C3)sc2n1 [Example 366, 7-amino-N-[(6S)-2-[(8S)-8-amino-2-oxa-6-azaspiro[3.4]octan-6-yl]-5,6,7,8-tetrahydroquinolin-6-yl]-3-methylthieno[2,3-b]pyrazine-6-carboxamide] was tested. Which IC50 did it give?
**A.** 200 to 2000 nM

**Q.** Cc1ccc2c(N)c(C(=O)N[C@H]3COc4cc(N5CC[C@H](N)C5)ccc4C3)sc2n1 [Example 369, 3-amino-N-[(3R)-7-[(3S)-3-aminopyrrolidin-1-yl]-3,4-dihydro-2H-1-benzopyran-3-yl]-6-methylthieno[2,3-b]pyridine-2-carboxamide] was tested. Which IC50 did it give?
**A.** 1 to 50 nM

**Q.** How did the IC50 turn out when Cc1ccc2c(N)c(C(=O)N[C@H]3CCc4nc(N5C[C@H](N)[C@]6(CCCO6)C5)ccc4C3)sc2n1 [Example 390, 3-amino-N-[(6S)-2-[(5S,9S)-9-amino-1-oxa-7-azaspiro[4.4]nonan-7-yl]-5,6,7,8-tetrahydroquinolin-6-yl]-6-methylthieno[2,3-b]pyridine-2-carboxamide] was run?
**A.** 200 to 2000 nM

**Q.** How did the IC50 turn out when Cc1ccc2c(N)c(C(=O)N[C@H]3CCc4nc(N5C[C@@H](N)[C@]6(CCCO6)C5)ccc4C3)sc2n1 [Example 391, 3-amino-N-[(6S)-2-[(5S,9R)-9-amino-1-oxa-7-azaspiro[4.4]nonan-7-yl]-5,6,7,8-tetrahydroquinolin-6-yl]-6-methylthieno[2,3-b]pyridine-2-carboxamide] was run?
**A.** 50 to 200 nM

**Q.** For Cc1ccc2c(N)c(C(=O)N[C@H]3CCc4nc(N5C[C@@H](N)[C@@]6(CCCO6)C5)ccc4C3)sc2n1 [Example 392, 3-amino-N-[(6S)-2-[(5R,9R)-9-amino-1-oxa-7-azaspiro[4.4]nonan-7-yl]-5,6,7,8-tetrahydroquinolin-6-yl]-6-methylthieno[2,3-b]pyridine-2-carboxamide], which IC50 is on record?
**A.** 200 to 2000 nM

**Q.** Cc1ccc2c(N)c(C(=O)N[C@H]3CCc4nc(N5C[C@H](N)[C@@]6(CCCO6)C5)ccc4C3)sc2n1 [Example 393, 3-amino-N-[(6S)-2-[(5R,9S)-9-amino-1-oxa-7-azaspiro[4.4]nonan-7-yl]-5,6,7,8-tetrahydroquinolin-6-yl]-6-methylthieno[2,3-b]pyridine-2-carboxamide] was tested. Which IC50 did it give?
**A.** 50 to 200 nM

**Q.** With Cc1ccc2c(N)c(C(=O)N[C@H]3COc4cc(N5CC6CNC[C@](C)(C5)O6)cc(F)c4C3)sc2n1 [Example 413, 3-amino-N-[(3R)-5-fluoro-7-[(1R)-1-methyl-9-oxa-3,7-diazabicyclo[3.3.1]nonan-3-yl]-3,4-dihydro-2H-1-benzopyran-3-yl]-6-methylthieno[2,3-b]pyridine-2-carboxamide] as the compound, how does the IC50 read?
**A.** 1 to 50 nM

**Q.** For Cc1ccc2c(N)c(C(=O)N[C@H]3COc4cc(N5CC6CNC[C@@](C)(C5)O6)cc(F)c4C3)sc2n1 [Example 414, 3-amino-N-[(3R)-5-fluoro-7-[(1S)-1-methyl-9-oxa-3,7-diazabicyclo[3.3.1]nonan-3-yl]-3,4-dihydro-2H-1-benzopyran-3-yl]-6-methylthieno[2,3-b]pyridine-2-carboxamide], which IC50 is on record?
**A.** 50 to 200 nM
